Data: paper PMC12057336 (Antimicrobial Agents and Chemotherapy, 2025)

Key:
human OAT3 = biological target: T1, human OAT3 (Homo sapiens, UniProt Q8TCC7); assay: Uptake in OAT3-transfected HEK293 cells; settings: 5 µM; 10 min; 37°C; vs mock cells
T1 sequence (Q8TCC7 1-542): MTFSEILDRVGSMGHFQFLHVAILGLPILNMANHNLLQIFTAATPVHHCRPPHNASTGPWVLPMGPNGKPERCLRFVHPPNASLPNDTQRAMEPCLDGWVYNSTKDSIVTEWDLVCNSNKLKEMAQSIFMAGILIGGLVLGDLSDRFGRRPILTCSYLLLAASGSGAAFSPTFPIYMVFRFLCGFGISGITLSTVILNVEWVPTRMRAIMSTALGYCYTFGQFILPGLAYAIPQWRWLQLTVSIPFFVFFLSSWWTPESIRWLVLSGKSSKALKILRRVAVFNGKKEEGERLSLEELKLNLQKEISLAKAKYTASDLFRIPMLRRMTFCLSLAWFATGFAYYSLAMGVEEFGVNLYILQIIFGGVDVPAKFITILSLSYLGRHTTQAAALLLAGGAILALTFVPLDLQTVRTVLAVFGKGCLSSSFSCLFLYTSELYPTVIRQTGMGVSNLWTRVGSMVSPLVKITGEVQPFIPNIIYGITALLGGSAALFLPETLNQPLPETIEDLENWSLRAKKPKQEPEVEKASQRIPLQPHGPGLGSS
Method: OATP1B1-, OATP1B3-, OATP2B1-, NTCP-, OAT1-, and OAT3-transfected HEK293 cells were cultured in DMEM supplemented with 10% FBS, 100 U/mL penicillin-streptomycin at 37°C with 95% relative humidity atmosphere containing 5% CO2. All cells were seeded in 24-well plates at a density of 4 × 10^5 cells/well and cultured for 1–2 days until they reached 80%–90% confluence. Prior to the initiation of uptake studies, the cells were washed twice with HBSS buffer at 37°C. Membrane vesicles were stored at −80°C and thawed at 37°C prior to the initiation of the studies.
All uptake tests were performed in triplicates. The activities of transporter-transfected HEK293 cells were evaluated using relevant positive substrates and inhibitors. E17G (5 µM, OATP1B1 and OATP1B3), ES (2 µM, OATP2B1), ES (5 µM, OAT3), TCA (10 µM, NTCP), and PAH (20 µM, OAT1) were used as substrates of the transporters. The inhibitors for each transporter were rifampicin (200 µM, OATP1B1 and OATP1B3), erlotinib (10 µM, OATP2B1), CsA (20 µM, NTCP), and probenecid (200 µM, OAT1 and OAT3).
The cells were washed three times with ice-cold HBSS buffer. […] The total protein concentration was measured using a BCA Protein Assay Kit. The uptake rates of HEK293-OATP1B1, HEK293-OATP1B3, HEK293-OATP2B1, HEK293-NTCP, HEK293-OAT1, HEK293-OAT3, and mock cells were calculated. […]

OCT3 = settings: cited from earlier work
MATE1 = settings: cited from earlier work
OAT3 = settings: cited from earlier work
OCT1 = settings: cited from earlier work

Which results are given for `CC(=O)NC[C@H]1CN(c2ccc(N3CCOCC3)c(F)c2)C(=O)O1` [Linezolid]?
substrate for OAT3 (human OAT3): not a substrate; substrate for OCT3 (OCT3): not a substrate; substrate for MATE1 (MATE1): not a substrate; inhibitor of OAT3 (OAT3): inhibitor; inhibitor of OCT1 (OCT1): not an inhibitor
